Series [1] in a line: Photostability protocol (UV exposure, ICH Q1B, SUNTEST, HPLC). Format: physicochemical. Particulars: after 17 h exposure to UV light; for Elafibranor degradation (%): HPLC-UV at 350 nm. As for the experimental part:
In order to make the difference between the degradation only due to temperature within the SUNTEST apparatus chamber and the degradation only due to UV exposure, a second elafibranor salt sample protected from light is also placed in the SUNTEST chamber. All samples are then analyzed by HPLC.
The crystallized samples were stressed by exposure to UV light according to the photostatbility protocol described above.

For series [2], the target named is T1, PPARgamma (Mus musculus, UniProt P37238).
T1 sequence (P37238 238-505 limits assumed): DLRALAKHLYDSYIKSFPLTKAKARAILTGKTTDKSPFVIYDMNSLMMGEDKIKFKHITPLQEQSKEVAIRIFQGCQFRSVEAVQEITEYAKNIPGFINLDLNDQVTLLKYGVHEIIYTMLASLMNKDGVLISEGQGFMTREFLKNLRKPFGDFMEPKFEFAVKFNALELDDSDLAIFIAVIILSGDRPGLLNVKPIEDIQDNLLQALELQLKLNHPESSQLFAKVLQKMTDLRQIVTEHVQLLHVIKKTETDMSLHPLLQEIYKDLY
As to the kind of experiment: Gal4-PPAR transactivation assay in COS-7 cells, murine PPARgamma. The class given is cell-based. Particulars: Murin. As for the experimental part:
(§1) Monkey kidney COS-7 cells were maintained in standard culture conditions (Dulbecco's modified Eagle's minimal medium: DMEM) supplemented with 10% fetal calf serum, 1% sodium pyruvate, 1% essential amino acids, 1% L-glutamine and 1% antibiotics at 37° C. in a humidified atmosphere of 5% CO2 and 95% air. The medium was changed every 2 days. All tested compounds were dissolved in DMSO. Cells were transfected using 4 μl JetPEI™ (Polyplus transfection)/μg of DNA. Briefly, 150 ng of DNA per well was transfected in a 96 well culture plate of adherent COS-7 cells (respecting the 10:1 ratio between the Gal4(RE)_TkpGL3 plasmid and the plasmid coding the nuclear receptor of interest (pGal4-hPPARalpha, pGal4-hPPARgamma, pGal4-hPPARdelta, pGal4-mPPARalpha, pGal4-mPPARgamma and pGal4-mPPARdelta) or of the pGal4phi plasmid (negative control). Cells were enzymatically detached and seeded in 96 well plates at the density of 40,000 cells per well and then incubated for 24 hours at 37° C. The activation was performed in DMEM 0% fetal calf serum, supplemented with the tested compounds (compound of interest or reference molecules) or vehicle (DMSO 0.1%). The luciferase activity was measured with the Steady-Glo Luciferase Assay System (Promega, Madison, WI). All transactivation experiments were performed at least 2 times. Activation curves were realized using Prism® (from GraphPad) software. Prism® was also used to fit the standard curves and then determine the specific EC50 values, maximum effect versus reference molecules and Hill slope. The Emax effect of each new ligand is represented as the ratio of the maximal induction (plateau) obtained with the new ligand and the induction obtained with the corresponding reference compound. The reference compounds for PPARalpha, PPARgamma and PPARdelta were fenofibrate (100 μM), rosiglitazone (10 μM) and GW501516 (1 μM), respectively.

Series [3] concerns the target T2, PPARgamma (Homo sapiens, UniProt P37231).
T2 sequence (P37231 238-505 limits assumed): T1 sequence (P37238 238-505 limits assumed) with N93S, I98V, N146S, V226L, H245Q
As to the kind of experiment: Gal4-PPAR transactivation assay in COS-7 cells, human PPARgamma. The class given is cell-based. As for the experimental part: as §1

Series [4] addresses T3, PPARalpha (Mus musculus, UniProt P23204).
T3 sequence (P23204 200-468 limits assumed): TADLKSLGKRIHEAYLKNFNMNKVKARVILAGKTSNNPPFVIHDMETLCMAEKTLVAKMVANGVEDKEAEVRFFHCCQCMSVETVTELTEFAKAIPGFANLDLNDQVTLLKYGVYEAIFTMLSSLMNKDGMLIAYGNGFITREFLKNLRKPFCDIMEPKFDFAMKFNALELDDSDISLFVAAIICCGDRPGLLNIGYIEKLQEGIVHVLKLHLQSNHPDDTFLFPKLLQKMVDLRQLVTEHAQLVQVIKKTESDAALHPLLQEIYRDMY
As to the kind of experiment: Gal4-PPAR transactivation assay in COS-7 cells, murine PPARalpha. Format: cell-based. The conditions noted are these: Murin. As for the experimental part: as §1

In series [5] the target is T4, PPARalpha (Homo sapiens, UniProt Q07869).
T4 sequence (Q07869 200-468 limits assumed): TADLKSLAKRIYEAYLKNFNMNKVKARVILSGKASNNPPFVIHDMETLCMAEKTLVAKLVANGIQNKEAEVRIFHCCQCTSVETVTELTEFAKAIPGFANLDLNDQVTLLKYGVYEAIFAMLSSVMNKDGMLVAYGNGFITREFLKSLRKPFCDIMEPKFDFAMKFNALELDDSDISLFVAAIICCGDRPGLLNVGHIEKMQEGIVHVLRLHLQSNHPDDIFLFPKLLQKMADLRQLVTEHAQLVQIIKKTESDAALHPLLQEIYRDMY
As to the kind of experiment: Gal4-PPAR transactivation assay in COS-7 cells, human PPARalpha. The class given is cell-based. Here is the method: as §1

The nature of series [6]: Solubility assessment in buffered aqueous solution. The conditions noted are these: for solubility at 24 h: 20 °C, thermodynamic from solid. As for the experimental part: The solubility of the compound is determined in buffered aqueous solution at pH 1, pH 3, pH 5 and pH 7.4.
The saturation is obtained by adding an excess of active ingredient to a given volume of test medium. The suspension is stirred by orbital stirring over 24 hours at […], away from light.
After 30 min, 1 hour, 2 hours and/or 24 hours, the supernatant is isolated by centrifugation and diluted in a solvent mixture allowing its injection into the chromatographic system. The concentration (expressed as parent concentration) in solution for each medium is determined by HPLC (external standardization).
After 24 hours an XRPD analysis is performed on the insoluble fraction isolated by centrifugation.
• pH 1 HCl/KCl buffer: a mixture of 0.373 g of KCl and 13.4 ml of HCl in a 100 mL volumetric flask was completed to 100 mL with de-ionized water. • pH 3 citrate buffer: 1.051 g of citric acid monohydrate was dissolved in 250 ml of de-ionized water. The pH was adjusted to 3 with NaOH. • pH 5 citrate/phosphate buffer: Solution I was prepared: 2.8392 g of Na2HPO4 in 100 mL volumetric flask was completed to 100 mL with de-ionized water. Solution II was prepared: 2.1004 g of citric acid monohydrate in a 100 mL volumetric flask was completed to 100 mL with de-ionized water. To 48.5 mL of Solution II were added 51.5 mL of Solution I. • pH 7.4 phosphate buffer: a mixture of 38 g of Na2HPO4, 12H2O and 3.8 g of Na2HPO4, 2H2O in a 1 L volumetric flask was completed to 1 L with de-ionized water. Salt Screening Macroscopic Observation

Where [7] appears, read: listed as Elafibranor L-Arginine salt.

Residue numbers refer to the chain shown, from its start. ≈ marks a conversion by molar mass, not a printed value. Counter-ions that a name gives are not always drawn. Like-named read-outs stand apart in the source and are kept apart here.

The EC50 is the concentration needed to bring the measured effect to its halfway point. Usually solubility stands for the dissolved amount per volume that the medium holds. A low value points to a poorly soluble substance.

For `CSc1ccc(C(=O)/C=C/c2cc(C)c(OC(C)(C)C(=O)O)c(C)c2)cc1` [Form II, Elafibranor potassium salt], in series [1], the “Photostability compared to elafibranor free acid” value was “significant improvement of the photostability”. The “Elafibranor degradation (%)” value amounted to 13% in series [1] (listed as Potassium salt (Form II), potassium salt) and 13% in series [1] (potassium salt). Moreover, the concentration for a half-maximal effect (EC50) at PPARgamma [2] stood at 590 nM; at PPARgamma [3], 430 nM; at PPARalpha [4], 96 nM; at PPARalpha [5], 64 nM.
As to `CSc1ccc(C(=O)/C=C/c2cc(C)c(OC(C)(C)C(=O)O)c(C)c2)cc1.N=C(N)NCCC[C@H](N)C(=O)O` [Form IV, Elafibranor L-arginate salt], the “Photostability compared to elafibranor free acid” value in series [1] is on record as “significant improvement of the photostability”. Further, the “Elafibranor degradation (%)” value in series [1] is 4%. In addition, the concentration giving a half-maximal response (EC50) at PPARgamma [2] (setting [7]) was determined as 580 nM; at PPARgamma [3] (setting [7]), 320 nM; on PPARalpha [4] (setting [7]) it was 93 nM; at PPARalpha [5] (setting [7]), 54 nM.
Regarding `CSc1ccc(C(=O)/C=C/c2cc(C)c(OC(C)(C)C(=O)O)c(C)c2)cc1.NC(CO)(CO)CO` [Form I, Elafibranor tromethamine salt], in series [1], the “Photostability compared to elafibranor free acid” value is on record as “significant improvement of the photostability”. In addition, the “Elafibranor degradation (%)” value in series [1] amounted to 10%. Besides, the EC50 on PPARgamma [2] is 730 nM; on PPARgamma [3] it was 490 nM; at PPARalpha [4], 103 nM; on PPARalpha [5], 68 nM. Besides, the “Final pH of the saturated solution” value in series [6] (pH 1 HCl/KCl buffer) is 0.9; in series [6] (pH 3 citrate buffer) it was 3.1; in series [6] (pH 5 citrate/phosphate buffer) it was 5.1; in series [6] (pH 7.4 phosphate buffer), 7.3. Also, the “Soluble fraction (mg/mL) at 20° C. at 24 hours” value in series [6] (pH 1 HCl/KCl buffer) is listed as below 0.001 mg/mL; in series [6] (pH 3 citrate buffer), below 0.001 mg/mL; in series [6] (pH 5 citrate/phosphate buffer) it was 0.003 mg/mL; in series [6] (pH 7.4 phosphate buffer), 0.19 mg/mL. Besides, in series [6] (pH 7.4), the “Solubility compared to elafibranor” value was “more soluble than elafibranor”.
As to `CSc1ccc(C(=O)/C=C/c2cc(C)c(OC(C)(C)C(=O)O)c(C)c2)cc1` [Elafibranor, reference compound], the “Elafibranor degradation (%)” value in series [1] (listed as Free acid) and in series [1] (listed as elafibranor free acid) was 27% in each case. For the same molecule, the EC50 at PPARgamma [2] came out at 580 nM; at PPARgamma [3] it was 430 nM; on PPARalpha [4], 95 nM; at PPARalpha [5] it was 57 nM. Besides, the solubility at 24 h in series [6] (pH 1, simulated gastric fluid) was below 1 µg/mL; in series [6] (pH 3, aqueous buffer) it was below 1 µg/mL; in series [6] (pH 5, aqueous buffer) it was 1 µg/mL (≈ 2.6 µM); in series [6] (pH 7.4, aqueous buffer), 130 µg/mL (≈ 338 µM). Further, the “Final pH of the saturated solution” value in series [6] (pH 1 HCl/KCl buffer) is 0.7; in series [6] (pH 3 citrate buffer), 2.9; in series [6] (pH 5 citrate/phosphate buffer), 4.9; in series [6] (pH 7.4 phosphate buffer), 7.3.
Turning to `CSc1ccc(C(=O)/C=C/c2cc(C)c(OC(C)(C)C(=O)O)c(C)c2)cc1` [Form III, Elafibranor sodium salt], in series [1] (sodium salt), the “Elafibranor degradation (%)” value worked out at 89%. For the same molecule, the 50% effective concentration (EC50) was determined as 770 nM at PPARgamma [2], 560 nM at PPARgamma [3], 133 nM on PPARalpha [4] and 77 nM on PPARalpha [5].

Values taken from US12030840B2 (GENFIT, priority 2018, dated 2024).
